Measurements as given in article PMC6112376, “Comprehensive Analyses and Prioritization of Tox21 10K Chemicals Affecting Mitochondrial Function by in-Depth Mechanistic Studies” (Environmental Health Perspectives, 2018).
Like-named read-outs stand apart in the source and are kept apart here.

How the values were obtained:
[1] = system: isolated rat liver mitochondria; test: Oxygen consumption, Clark-type oxygen electrode; assay type: biochemical; settings: for I-ADP, % of control (O2 consumption rate): glutamate/malate driven state 3 respiration; for I-ADP, % of control (O2 consumption rate) / I-sub, % of control (O2 consumption rate) / II-ADP, % of control (O2 consumption rate) / II-sub, % of control (O2 consumption rate): isolated rat liver mitochondria; for I-sub, % of control (O2 consumption rate): glutamate/malate driven state 4 respiration; for II-ADP, % of control (O2 consumption rate): succinate-driven state 3 respiration; for II-sub, % of control (O2 consumption rate): succinate-driven state 4 respiration; for Potential Mechanism: mitochondrial respiration in isolated rat liver mitochondria, Clark type oxygen electrode, over tested concentrations
rat primary hepatocytes = test: MMP assay in rat primary hepatocytes; settings: for Rat hepatocytes (efficacy) (MMP): % of positive control, mean±SD of three experiments; for IC50: Rattus norvegicus, Hepatocyte; for MMP assays efficacy (%) Rat Hepatocytes: mean ± SD of three experiments
HepG2 cells [2] = settings: 10 mM galactose, no glucose; 1 h treatment; mean±SD of three experiments
[3] = system: Nrf2/ARE (ARE-bla HepG2 cells); test: ARE β-lactamase reporter gene assay; assay type: cell-based, human; settings: Homo sapiens, HepG2; 16 h incubation; mean±SD of three experiments; read-out: ARE (HepG2) EC50
HepG2 cells [4] = test: cells; settings: Homo sapiens; for Emax: HepG2, read-out: MMP assays efficacy (%) HepG2
[5] = system: HeLa cells expressing YFP-Parkin; test: Parkin translocation assay; assay type: cell-based, human; settings: HeLa cells stably expressing YFP-Parkin; treated for 2 h
[6] = system: Caenorhabditis elegans strain PE255; test: In vivo C. elegans ATP status assay
[7] = system: Caenorhabditis elegans (Bristol N2); test: C. elegans larval development and growth assay
HepG2 cells [8] = settings: cited from earlier work
[9] = system: p53 (p53-bla HCT-116 cells); test: p53 β-lactamase reporter gene assay; assay type: cell-based, human; settings: 16 h incubation; mean±SD of three experiments
HepG2 cells [10] = test: Intracellular ATP content (cell viability) assay; assay type: cell-based, human; settings: 40 h treatment, mean±SD of three experiments; for ATP (HepG2, glucose) IC50: 5 mM glucose; for ATP (HepG2, galactose) IC50: 10 mM galactose
HepG2 cells [11] = test: ROS-Glo hydrogen peroxide (ROS) assay; assay type: cell-based, human; settings: 2 h treatment, mean±SD of three experiments
hNSC = test: MMP assay in human neural stem cells (hNSC); assay type: cell-based; settings: Homo sapiens, Neural stem cell; 1 h treatment; fresh re-sourced stocks; mean±SD of three experiments; read-out: hNSC IC50 (MMP)
[12] = 1 h, read-out: Rat hepatocytes IC50 (MMP)
[13] = read-out: MMP assays IC50 (µM) Rat Hepatocytes
[14] = HepG2, 1 h, read-out: HepG2 IC50 Glucose (MMP)
[15] = HepG2, read-out: MMP assays IC50 (µM) HepG2

O=C(O)c1cc(O)c2c(c1)C(=O)c1cccc(O)c1C2=O [Rhein]
I-ADP, % of control (O2 consumption rate) ([1]; 4 µM): 90 (49.1) % of control
I-sub, % of control (O2 consumption rate) ([1]; 4 µM): 105 (13.7) % of control
II-ADP, % of control (O2 consumption rate) ([1]; 4 µM): 89 (78.7) % of control
II-sub, % of control (O2 consumption rate) ([1]; 4 µM): 103 (25.4) % of control
I-ADP, % of control (O2 consumption rate) ([1]; 20 µM): 87 (47.4) % of control
I-sub, % of control (O2 consumption rate) ([1]; 20 µM): 127 (16.6) % of control
II-ADP, % of control (O2 consumption rate) ([1]; 20 µM): 87 (76.7) % of control
II-sub, % of control (O2 consumption rate) ([1]; 20 µM): 128 (31.4) % of control
Potential Mechanism [1]: Uncoupler
Rat hepatocytes (efficacy) (MMP) (rat primary hepatocytes): −37.5±6.05%
IC50 (rat primary hepatocytes; [12]): 6.76 ± 4.03 µM
IC50 (rat primary hepatocytes; [13]): 11.6 ± 4.85 µM
MMP assays efficacy (%) Rat Hepatocytes (rat primary hepatocytes): -80±28%
HepG2 IC50 Galactose (MMP) (HepG2 cells [2]): Inactive
EC50 [3]: 15.4 ± 8.38 µM
IC50 (HepG2 cells [4]; [14]): 15.2 ± 1.76 µM
IC50 (HepG2 cells [4]; [15]): 8.91 µM
Emax (HepG2 cells [4]): 86%
Parkin recruitment [5]: Inactive
LUM: mean difference in luminescence (ATP content) relative to plate controls ([6]; 0.05 µM): -0.02422
LUM: mean difference in luminescence (ATP content) relative to plate controls ([6]; 0.1 µM): 0.007311
LUM: mean difference in luminescence (ATP content) relative to plate controls ([6]; 0.5 µM): 0.006998
LUM: mean difference in luminescence (ATP content) relative to plate controls ([6]; 1 µM): 0.1053
LUM: mean difference in luminescence (ATP content) relative to plate controls ([6]; 5 µM): 0.1063
LUM: mean difference in luminescence (ATP content) relative to plate controls ([6]; 10 µM): 0.1127
LUM: mean difference in luminescence (ATP content) relative to plate controls ([6]; 25 µM): 0.2215
LUM: mean difference in luminescence (ATP content) relative to plate controls ([6]; 50 µM): 0.2804
LUM: mean difference in luminescence (ATP content) relative to plate controls ([6]; 75 µM): 0.1816
LUM: mean difference in luminescence (ATP content) relative to plate controls ([6]; 100 µM): 0.2365
EXT: mean difference in nematode size relative to plate controls ([7]; 0.5 µM): 0.02304
EXT: mean difference in nematode size relative to plate controls ([7]; 1 µM): 0.01629
EXT: mean difference in nematode size relative to plate controls ([7]; 5 µM): 0.06956
EXT: mean difference in nematode size relative to plate controls ([7]; 10 µM): -0.06339
EXT: mean difference in nematode size relative to plate controls ([7]; 25 µM): -0.09625
EXT: mean difference in nematode size relative to plate controls ([7]; 50 µM): 0.296
EXT: mean difference in nematode size relative to plate controls ([7]; 75 µM): 0.2342
EXT: mean difference in nematode size relative to plate controls ([7]; 100 µM): 0.2496
MMP assays efficacy (%) qHTS-HepG2 (HepG2 cells [8]): -100±22%
IC50 (HepG2 cells [8]; read-out: MMP assays IC50 (µM), qHTS-HepG2): 6.06 ± 5.91 µM
p53 (HCT-116) EC50 [9]: Inactive
ATP (HepG2, glucose) IC50 (HepG2 cells [10]): Inactive
ATP (HepG2, galactose) IC50 (HepG2 cells [10]): Inactive
ROS (HepG2) EC50 (HepG2 cells [11]): Inactive
IC50 (hNSC): 10.3 ± 3.4 µM

Nc1ccc2c(c1)C(=O)c1ccccc1C2=O [2-Aminoanthraquinone]
I-ADP, % of control (O2 consumption rate) ([1]; 100 µM): 101 (53.8) % of control
I-sub, % of control (O2 consumption rate) ([1]; 100 µM): 98 (13.2) % of control
II-ADP, % of control (O2 consumption rate) ([1]; 100 µM): 124 (83.8) % of control
II-sub, % of control (O2 consumption rate) ([1]; 100 µM): 107 (23.2) % of control
Potential Mechanism [1]: Inactive
Rat hepatocytes (efficacy) (MMP) (rat primary hepatocytes): −58.3±7.52%
IC50 (rat primary hepatocytes; [12]): 9.63 ± 3.17 µM
IC50 (rat primary hepatocytes; [13]): 3.57 ± 2.61 µM
MMP assays efficacy (%) Rat Hepatocytes (rat primary hepatocytes): -91±30%
EC50 [3]: 3.93 ± 0.89 µM
IC50 (HepG2 cells [4]; HepG2, 1 h, read-out: HepG2 IC50 Galactose (MMP)): 8.98 ± 1.62 µM
IC50 (HepG2 cells [4]; [14]): 6.58 ± 0.9 µM
IC50 (HepG2 cells [4]; [15]): 1.26 µM
Emax (HepG2 cells [4]): 85%
Parkin recruitment [5]: Inactive
LUM: mean difference in luminescence (ATP content) relative to plate controls ([6]; 0.5 µM): 0.5241
LUM: mean difference in luminescence (ATP content) relative to plate controls ([6]; 1 µM): 1.069
LUM: mean difference in luminescence (ATP content) relative to plate controls ([6]; 5 µM): 1.958
LUM: mean difference in luminescence (ATP content) relative to plate controls ([6]; 10 µM): 1.846
LUM: mean difference in luminescence (ATP content) relative to plate controls ([6]; 25 µM): 1.929
LUM: mean difference in luminescence (ATP content) relative to plate controls ([6]; 50 µM): 1.555
LUM: mean difference in luminescence (ATP content) relative to plate controls ([6]; 75 µM): 1.569
LUM: mean difference in luminescence (ATP content) relative to plate controls ([6]; 100 µM): 1.98
LEC (lowest effect concentration), ATP assay ([6]; 24 h exposure): ≤ 10 µM
minimal effective concentration ([6]; Caenorhabditis elegans, read-out: LEC LUM: lowest effect concentration for luminescence, a measure of nematode ATP content): 0.5 µM
EXT: mean difference in nematode size relative to plate controls ([7]; 0.5 µM): 0.000738
EXT: mean difference in nematode size relative to plate controls ([7]; 1 µM): 0.7865
EXT: mean difference in nematode size relative to plate controls ([7]; 5 µM): 0.06113
EXT: mean difference in nematode size relative to plate controls ([7]; 10 µM): 0.09116
EXT: mean difference in nematode size relative to plate controls ([7]; 25 µM): 0.03934
EXT: mean difference in nematode size relative to plate controls ([7]; 50 µM): 0.4385
EXT: mean difference in nematode size relative to plate controls ([7]; 75 µM): 0.2071
EXT: mean difference in nematode size relative to plate controls ([7]; 100 µM): 0.2541
minimal effective concentration ([7]; Caenorhabditis elegans, read-out: LEC EXT: lowest effect concentration for extinction, a measure of nematode size): 100 µM
MMP assays efficacy (%) qHTS-HepG2 (HepG2 cells [8]): -85±11%
IC50 (HepG2 cells [8]; read-out: MMP assays IC50 (µM) qHTS-HepG2): 0.51 ± 0.29 µM
p53 (HCT-116) EC50 [9]: Inactive
ATP (HepG2, glucose) IC50 (HepG2 cells [10]): Inactive
ATP (HepG2, galactose) IC50 (HepG2 cells [10]): Inactive
EC50 (HepG2 cells [11]; Homo sapiens, HepG2, read-out: ROS (HepG2) EC50): 4.72 ± 0.8 µM
IC50 (hNSC): 1.8 ± 0.83 µM
